Measured values as given in patent US8101550B2, “Anthranilic acid diamide derivative with hetero-aromatic and hetero-cyclic substituents” (Bayer Cropscience AG, priority 2006, dated 2012).

Test: log P determination by HPLC on reverse-phase column (EEC Directive 79/831 Annex V.A8)
Assay type: physicochemical
Summary of the method: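 Log P was derived from retention times by linear interpolation between successive unbranched alkan-2-one standards (C3–C16). The standards and samples ran on a C18 reverse-phase column at 43 °C with a 10→95% acetonitrile gradient in 0.1% formic acid (pH 2.7). The method follows EEC Directive 79/831 Annex V.A8.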
Compound CNC(=O)c1cc(I)cc(C)c1NC(=O)c1cc(Cn2cc(Cl)c(C(F)(F)C(F)(F)F)n2)nn1-c1ncccc1Cl [I-1-243] has a logP of 3.96. Compound CCNC(=O)c1cc(I)cc(C)c1NC(=O)c1cc(Cn2nc(C(F)(F)F)nc2C(F)(F)F)nn1-c1ncccc1Cl [I-1-244] has a logP of 3.83. Cc1cc(I)cc(C(=O)NCC#N)c1NC(=O)c1cc(Cn2nc(C(F)(F)F)nc2C(F)(F)F)nn1-c1ncccc1Cl [I-1-245] gave a logP of 3.53. Cc1cc(I)cc(C(=O)NCC#N)c1NC(=O)c1cc(Cn2cc(Cl)c(C(F)(F)C(F)(F)F)n2)nn1-c1ncccc1Cl [I-1-246] showed a logP of 3.85. CNC(=O)c1cc(I)cc(C)c1NC(=O)c1cc(Cn2ccc(C(F)(F)F)n2)nn1-c1ncccc1Cl [I-1-247] gave a logP of 3.05. With Cc1cc(I)cc(C(=O)NC(C)C)c1NC(=O)c1cc(Cn2ccc(C(F)(F)F)n2)nn1-c1ncccc1Cl [I-1-248] the logP was 3.51. With Cc1cc(I)cc(C(=O)NC2CC2)c1NC(=O)c1cc(Cn2ccc(C(F)(F)F)n2)nn1-c1ncccc1Cl [I-1-249] the logP was 3.27. In the case of CCNC(=O)c1cc(I)cc(C)c1NC(=O)c1cc(Cn2ccc(C(F)(F)F)n2)nn1-c1ncccc1Cl [I-1-250], the logP is reported as 3.28. For Cc1cc(I)cc(C(=O)NCC#N)c1NC(=O)c1cc(Cn2ccc(C(F)(F)F)n2)nn1-c1ncccc1Cl [I-1-251], the logP was 3.04. Cc1cc(I)cc(C(=O)NC2CC2)c1NC(=O)c1cc(Cn2nc(C(F)(F)F)nc2C(F)(F)F)nn1-c1ncccc1Cl [I-1-252] showed a logP of 3.81. For Cc1cc(I)cc(C(=O)NCC2CC2)c1NC(=O)c1cc(Cn2nc(C(F)(F)F)nc2C(F)(F)F)nn1-c1ncccc1Cl [I-1-253], the logP was 4.13. Work on Cc1cc(I)cc(C(=O)NCC2CC2)c1NC(=O)c1cc(Cn2cc(Cl)c(C(F)(F)C(F)(F)F)n2)nn1-c1ncccc1Cl [I-1-254] yielded a logP of 4.47. In the case of Cc1cc(I)cc(C(=O)N(C)C)c1NC(=O)c1cc(Cn2nc(C(F)(F)F)cc2C(F)(F)F)nn1-c1ncccc1Cl [I-1-256], the logP is reported as 3.84. Work on CNC(=O)c1cc(Cl)cc(C)c1NC(=O)c1cc(Cn2nc(C(F)F)c([N+](=O)[O-])c2C(F)F)nn1-c1ncccc1Cl [I-1-257] yielded a logP of 2.92. In the case of Cc1cc(Cl)cc(C(=O)NC(C)C)c1NC(=O)c1cc(Cn2nc(C(F)F)c([N+](=O)[O-])c2C(F)F)nn1-c1ncccc1Cl [I-1-258], the logP is reported as 3.32. Compound CC(C)NC(=O)c1cc(Cl)cc(Cl)c1NC(=O)c1cc(Cn2nc(C(F)F)c([N+](=O)[O-])c2C(F)F)nn1-c1ncccc1Cl [I-1-259] has a logP of 3.27. Work on Cc1cc(Cl)cc(C(=O)NC2CC2)c1NC(=O)c1cc(Cn2nc(C(F)F)c([N+](=O)[O-])c2C(F)F)nn1-c1ncccc1Cl [I-1-260] yielded a logP of 3.12. O=C(NC1CC1)c1cc(Cl)cc(Cl)c1NC(=O)c1cc(Cn2nc(C(F)F)c([N+](=O)[O-])c2C(F)F)nn1-c1ncccc1Cl [I-1-261] showed a logP of 3.08. Compound CSc1ncn(Cc2cc(C(=O)Nc3c(C)cc(Cl)cc3C(=O)NC(C)C)n(-c3ncccc3Cl)n2)n1 [I-1-262] has a logP of 2.31. Work on CSc1ncn(Cc2cc(C(=O)Nc3c(C)cc(Cl)cc3C(=O)NC3CC3)n(-c3ncccc3Cl)n2)n1 [I-1-263] yielded a logP of 2.13. With CNC(=O)c1cc(Cl)cc(C)c1NC(=O)c1cc(Cn2cnc(SC)n2)nn1-c1ncccc1Cl [I-1-265] the logP was 1.94. Compound CNC(=O)c1cc(Cl)cc(Cl)c1NC(=O)c1cc(Cn2nc(C(F)F)c([N+](=O)[O-])c2C(F)F)nn1-c1ncccc1Cl [I-1-266] has a logP of 2.99. Cc1cc(I)cc(C(=O)NC(C)C)c1NC(=O)c1cc(Cn2nc(C(F)F)c([N+](=O)[O-])c2C(F)F)nn1-c1ncccc1Cl [I-1-267] gave a logP of 3.67. For Cc1cc(I)cc(C(=O)NC2CC2)c1NC(=O)c1cc(Cn2nc(C(F)F)c([N+](=O)[O-])c2C(F)F)nn1-c1ncccc1Cl [I-1-268], the logP was 3.44. Cc1cc(Cl)cc(C(=O)NC(C)C)c1NC(=O)c1cc(Cn2nc(C)c(Br)c2C)nn1-c1ncccc1Cl [I-1-269] showed a logP of 3.4. In the case of CNC(=O)c1cc(Cl)cc(C)c1NC(=O)c1cc(Cn2nc(C)c(Br)c2C)nn1-c1ncccc1Cl [I-1-270], the logP is reported as 2.95. Compound Cc1cc(Cl)cc(C(=O)NC2CC2)c1NC(=O)c1cc(Cn2nc(C)c(Br)c2C)nn1-c1ncccc1Cl [I-1-271] has a logP of 3.17. Cc1cc(I)cc(C(N)=O)c1NC(=O)c1cc(Cn2nc(C(F)(F)F)nc2C(F)(F)F)nn1-c1ncccc1Cl [I-1-272] showed a logP of 3.38. Compound Cc1cc(I)cc(C(N)=O)c1NC(=O)c1cc(Cn2ccc(C(F)(F)F)n2)nn1-c1ncccc1Cl [I-1-273] has a logP of 2.84. In the case of CCNC(=O)c1cc(I)cc(C)c1NC(=O)c1cc(Cn2cc(C(F)(F)C(F)(F)F)c(C(F)(F)C(F)(F)F)n2)nn1-c1ncccc1Cl [I-1-274], the logP is reported as 4.74. In the case of Cc1cc(I)cc(C(=O)NC2CC2)c1NC(=O)c1cc(Cn2cc(C(F)(F)C(F)(F)F)c(C(F)(F)C(F)(F)F)n2)nn1-c1ncccc1Cl [I-1-275], the logP is reported as 4.71. Work on Cc1cc(I)cc(C(=O)NC2CC2)c1NC(=O)c1cc(Cn2cc(Cl)c(C(F)(F)C(F)(F)F)n2)nn1-c1ncccc1Cl [I-1-276] yielded a logP of 4.15. CCNC(=O)c1cc(I)cc(C)c1NC(=O)c1cc(Cn2cc(Cl)c(C(F)(F)C(F)(F)F)n2)nn1-c1ncccc1Cl [I-1-277] gave a logP of 4.17. In the case of CNC(=O)c1cc(I)cc(C)c1NC(=O)c1cc(Cn2nc(C(F)F)c([N+](=O)[O-])c2C(F)F)nn1-c1ncccc1Cl [I-1-278], the logP is reported as 3.25. In the case of Cc1cc(I)cc(C(=O)NC2CCCC2)c1NC(=O)c1cc(Cn2nc(C(F)(F)F)nc2C(F)(F)F)nn1-c1ncccc1Cl [I-1-279], the logP is reported as 4.47. In the case of Cc1cc(I)cc(C(=O)NC2CCCCCCCCCCC2)c1NC(=O)c1cc(Cn2nc(C(F)(F)F)nc2C(F)(F)F)nn1-c1ncccc1Cl [I-1-280], the logP is reported as 6.56. Compound Cc1cc(I)cc(C(=O)NC2CCCCC2)c1NC(=O)c1cc(Cn2nc(C(F)(F)F)nc2C(F)(F)F)nn1-c1ncccc1Cl [I-1-281] has a logP of 4.54. Work on Cc1cc(I)cc(C(=O)NC2CCC2)c1NC(=O)c1cc(Cn2nc(C(F)(F)F)nc2C(F)(F)F)nn1-c1ncccc1Cl [I-1-282] yielded a logP of 4.18. In the case of CCNC(=O)c1cc(I)cc(C)c1NC(=O)c1cc(Cn2nc(C(F)(F)F)nc2C(F)(F)F)nn1-c1ncccc1Cl [I-1-283], the logP is reported as 3.89. With Cc1cc(I)cc(C(=O)NC(C)C2CC2)c1NC(=O)c1cc(Cn2nc(C(F)(F)F)nc2C(F)(F)F)nn1-c1ncccc1Cl (stereo not drawn) [I-1-284] the logP was 4.16. In the case of Cc1cc(I)cc(C(=O)NC(C)(C)C)c1NC(=O)c1cc(Cn2nc(C(F)(F)F)nc2C(F)(F)F)nn1-c1ncccc1Cl [I-1-285], the logP is reported as 4.23. Work on Cc1cc(I)cc(C(=O)NC(C2CC2)C2CC2)c1NC(=O)c1cc(Cn2nc(C(F)(F)F)nc2C(F)(F)F)nn1-c1ncccc1Cl [I-1-286] yielded a logP of 4.52. With Cc1cc(I)cc(C(=O)NC(C)C2CC2)c1NC(=O)c1cc(Cn2cc(Cl)c(C(F)(F)C(F)(F)F)n2)nn1-c1ncccc1Cl (stereo not drawn) [I-1-287] the logP was 4.69. Work on Cc1cc(I)cc(C(=O)NC(C2CC2)C2CC2)c1NC(=O)c1cc(Cn2cc(Cl)c(C(F)(F)C(F)(F)F)n2)nn1-c1ncccc1Cl [I-1-288] yielded a logP of 4.79. Cc1cc(I)cc(C(=O)NC(C)(C)C)c1NC(=O)c1cc(Cn2cc(Cl)c(C(F)(F)C(F)(F)F)n2)nn1-c1ncccc1Cl [I-1-289] showed a logP of 4.63. Compound CNC(=O)c1cc(Cl)cc(Cl)c1NC(=O)c1cc(Cn2nc(C(F)(F)F)nc2C(F)(F)F)nn1-c1ncccc1Cl [I-1-290] has a logP of 3.40. CC(C)NC(=O)c1cc(Cl)cc(Cl)c1NC(=O)c1cc(Cn2nc(C(F)(F)F)nc2C(F)(F)F)nn1-c1ncccc1Cl [I-1-291] showed a logP of 3.76. In the case of N#CCNC(=O)c1cc(Cl)cc(Cl)c1NC(=O)c1cc(Cn2nc(C(F)(F)F)nc2C(F)(F)F)nn1-c1ncccc1Cl [I-1-292], the logP is reported as 2.83. Work on O=C(NCC1CC1)c1cc(Cl)cc(Cl)c1NC(=O)c1cc(Cn2nc(C(F)(F)F)nc2C(F)(F)F)nn1-c1ncccc1Cl [I-1-293] yielded a logP of 3.22. With CC(C)NC(=O)c1cc(Cl)cc(Cl)c1NC(=O)c1cc(Cn2cc(C(F)(F)C(F)(F)F)c(C(F)(F)C(F)(F)F)n2)nn1-c1ncccc1Cl [I-1-294] the logP was 4.00. Compound O=C(NC1CC1)c1cc(Cl)cc(Cl)c1NC(=O)c1cc(Cn2nc(C(F)(F)F)nc2C(F)(F)F)nn1-c1ncccc1Cl [I-1-295] has a logP of 2.95. Compound NC(=O)c1cc(Cl)cc(Cl)c1NC(=O)c1cc(Cn2cc(C(F)(F)C(F)(F)F)c(C(F)(F)C(F)(F)F)n2)nn1-c1ncccc1Cl [I-1-296] has a logP of 3.43. With CNC(=O)c1cc(Cl)cc(Cl)c1NC(=O)c1cc(Cn2cc(C(F)(F)C(F)(F)F)c(C(F)(F)C(F)(F)F)n2)nn1-c1ncccc1Cl [I-1-297] the logP was 3.59. NC(=O)c1cc(Cl)cc(Cl)c1NC(=O)c1cc(Cn2nc(C(F)(F)F)nc2C(F)(F)F)nn1-c1ncccc1Cl [I-1-298] gave a logP of 2.61. With N#CCNC(=O)c1cc(Cl)cc(Cl)c1NC(=O)c1cc(Cn2cc(C(F)(F)C(F)(F)F)c(C(F)(F)C(F)(F)F)n2)nn1-c1ncccc1Cl [I-1-299] the logP was 3.53. Compound O=C(NC1CC1)c1cc(Cl)cc(Cl)c1NC(=O)c1cc(Cn2nc(C(F)(F)F)cc2C(F)(F)F)nn1-c1ncccc1Cl [I-1-300] has a logP of 3.19. Work on CC(C)NC(=O)c1cc(Cl)cc(Cl)c1NC(=O)c1cc(Cc2ccoc2)nn1-c1ncccc1Cl [I-1-301] yielded a logP of 2.60. For NC(=O)c1cc(Cl)cc(Cl)c1NC(=O)c1cc(Cn2nc(C(F)(F)F)cc2C(F)(F)F)nn1-c1ncccc1Cl [I-1-302], the logP was 2.80. Compound N#CCNC(=O)c1cc(Cl)cc(Cl)c1NC(=O)c1cc(Cn2nc(C(F)(F)F)cc2C(F)(F)F)nn1-c1ncccc1Cl [I-1-303] has a logP of 2.98. In the case of CNC(=O)c1cc(Cl)cc(Cl)c1NC(=O)c1cc(Cn2nc(C(F)(F)F)cc2C(F)(F)F)nn1-c1ncccc1Cl [I-1-304], the logP is reported as 3.01. Work on CC(C)NC(=O)c1cc(Cl)cc(Cl)c1NC(=O)c1cc(Cn2nc(C(F)(F)F)cc2C(F)(F)F)nn1-c1ncccc1Cl [I-1-305] yielded a logP of 3.40. Compound CNC(=O)c1cc(Cl)cc(Cl)c1NC(=O)c1cc(Cc2ccoc2)nn1-c1ncccc1Cl [I-1-306] has a logP of 2.18. Compound NC(=O)c1cc(Cl)cc(Cl)c1NC(=O)c1cc(Cn2cc(Cl)c(C(F)(F)C(F)(F)F)n2)nn1-c1ncccc1Cl [I-1-307] has a logP of 2.95.
